The source of these data is patent publication US10562891B2, “Quinazolinones as PARP14 inhibitors” (Ribon Therapeutics Inc., priority 2017, dated 2020).

Where a name gives a salt, the structure may show the parent alone.

Chain of catalytic domain of human PARP14 (Q460N5 1611-1801): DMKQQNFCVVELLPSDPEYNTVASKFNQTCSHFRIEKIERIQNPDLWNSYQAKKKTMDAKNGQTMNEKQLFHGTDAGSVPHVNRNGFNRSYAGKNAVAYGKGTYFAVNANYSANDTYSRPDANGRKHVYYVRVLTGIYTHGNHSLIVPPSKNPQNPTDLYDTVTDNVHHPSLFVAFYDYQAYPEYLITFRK

The experiment deals with catalytic domain of human PARP14 (Homo sapiens (Human), UniProt Q460N5). The experiment is described as follows: Enzymatic assay for inhibition of PARP14 (DELFIA, auto-modification with biotin-NAD). The experiment is classed as biochemical. To be noted: auto-modification of PARP14 by biotin-NAD, 50 nM PARP14, 3 μM biotin-NAD. The method, then:
An N-terminal His-TEV fusion tag was used to purify the protein from cell lysates. The His-TEV tag was left on the protein for use in the enzymatic assay.
Enzymatic inhibition of PARP14 was measured using a dissociation-enhanced lanthanide fluorescence immunoassay (DELFIA) monitoring the auto-modification of PARP14 by biotinylated nicotinamide adenine dinucleotide (biotin-NAD). 1 μL of a dose response curve of each test compound was spotted in 384-well nickel-coated white microplates (Thermo) using a Mosquito (TTP Labtech). Reactions were performed in a 50 μL volume by adding 40 μL of PARP14 in assay buffer (20 mM HEPES pH==8, 100 mM NaCl, 0.1% bovine serum albumin, 2 mM DTT and 0.002%0 Tween20), incubating with test compound at 25° C. for 30 min, then adding 10 μL of biotin-NAD (Biolog). The final concentrations of PARP14 and biotin-NAD are 50 nM and 3 μM, respectively. Reactions proceeded at 25° C. for 3 h, then were quenched with 5 μL of 10 mM unmodified nicotinamide adenine dinucleotide (Sigma-Aldrich). The quenched reactions were washed 3 times with 100 μL of TBST wash buffer (50 mM Tris-HCl, 150 mM NaCl and 0.1% Tween20). Next, to the washed and dried plate was added 25 μL of DELFIA Europium-N1 streptavidin (Perkin Elmer) diluted in DELFIA assay buffer (Perkin Elmer). After a 30 min incubation at 25° C., the plate was washed 5 times with TBST wash buffer. Finally, 25 μL of DELFIA enhancement solution was added. After a 5 min incubation the plate was read on an Envision platereader equipped with a LANCE/DELFIA top mirror (Perkin Elmer) using excitation of 340 nm and emission of 615 nm to measure the amount of Europium present in each well, informing on the amount of biotin-NAD that was transferred in the automodification reaction.
[formula] where ex615cmpd is the emission from the compound treated well, ex615min is the emission from the rucaparib treated positive control well and ex615max is the emission from the DMSO treated negative control well.
The % inhibition values were plotted as a function of compound concentration and the following 4-parameter fit was applied to derive the IC50 values:
[formula] where top and bottom are normally allowed to float, but may be fixed at 100 or 0 respectively in a 3-parameter fit. The Hill Coefficient is normally allowed to float but may also be fixed at 1 in a 3-parameter fit. Y is the % inhibition and X is the compound concentration.
The term IC50 denotes the midpoint of a concentration-inhibition curve. A low value points to inhibition by little substance. `Cc1cccc2c(=O)[nH]c(CS[C@H]3CCC[C@H](N)CC3)nc12` (relative stereo) [Example 54, 2-(((trans-4-Aminocycloheptyl)thio)methyl)-8-methylquinazolin-4(3H)-one Trifluoroacetate] displayed an IC50 of 1 to 10 µM.
The same measure for `Cc1cccc2c(=O)[nH]c(CS[C@H]3CCC[C@@H](N)CC3)nc12` (relative stereo) [Example 55, 2-(((cis-4-Aminocycloheptyl)thio)methyl)-8-methylquinazolin-4(3H)-one Trifluoroacetate]: 1 to 10 µM; for `Cc1cccc2c(=O)[nH]c(CS[C@H]3CCC[C@H](CO)C3)nc12` (relative stereo) [Example 70, 2-(((trans-3-(Hydroxymethyl)cyclohexyl)thio)methyl)-8-methylquinazolin-4(3H)-one]: 1 to 10 µM; for `Cc1cccc2c(=O)[nH]c(CS[C@H]3CCC[C@@H](CO)C3)nc12` (relative stereo) [Example 71, 2-(((cis-3-(Hydroxymethyl)cyclohexyl)thio)methyl)-8-methylquinazolin-4(3H)-one]: 1 to 10 µM.
The same measure for `Cc1cccc2c(=O)[nH]c(CS[C@@H]3CCC[C@H](CN(C)C)C3)nc12` (relative stereo) [Example 72, 2-((((cis)-3-((Dimethylamino)methyl)cyclohexyl)thio)methyl)-8-methyl quinazolin-4(3H)-one Trifluoroacetate]: more than 10 µM; for `Cc1cccc2c(=O)[nH]c(CS[C@@H]3CC[C@@H](CCN)C3)nc12` (relative stereo) [Example 183, 2-((((trans)-3-(2-aminoethyl)cyclopentyl)thio)methyl)-8-methylquinazolin-4(3H)-one]: 1 to 10 µM; for `O=c1[nH]c(CS[C@H]2CCNC[C@@H]2F)nc2cc(NC3CCCC3)cc(F)c12` (relative stereo) [Example 210, 7-(Cyclopentylamino)-5-fluoro-2-(((trans-3-fluoropiperidin-4-yl)thio)methyl)quinazolin-4(3H)-one Hydrochloride]: less than 1 µM.
Consider `O=c1[nH]c(CS[C@H]2CCNC[C@H]2F)nc2cc(NC3CCCC3)cc(F)c12` (relative stereo) [Example 212, 7-(Cyclopentylamino)-5-fluoro-2-((((cis)-3-fluoropiperidin-4-yl)thio)methyl)quinazolin-4(3H)-one Hydrochloride], for which the IC50 is less than 1 µM.
The same measure for `Cc1cccc2c(=O)[nH]c(CS[C@H]3CC[C@@H](CO)OC3)nc12` (relative stereo) [Example 221, 2-(((Cis-6-(Hydroxymethyl)tetrahydro-2H-pyran-3-yl)thio)methyl)-8-methylquinazolin-4(3H)-one]: 1 to 10 µM; for `O=c1[nH]c(CS[C@H]2CCNC[C@@H]2C(F)(F)F)nc2cc(NC3CCCC3)cc(F)c12` (relative stereo) [Example 222, 7-(Cyclopentylamino)-5-fluoro-2-(((trans-3-(trifluoromethyl)piperidin-4-yl)thio)methyl)quinazolin-4(3H)-one Hydrochloride]: less than 1 µM.
`O=c1[nH]c(CS[C@H]2CNC[C@H]2F)nc2cc(NC3CCCC3)cc(F)c12` (relative stereo) [Example 223, 7-(Cyclopentylamino)-5-fluoro-2-(((cis-4-fluoropyrrolidin-3-yl)thio)methyl)quinazolin-4(3H)-one Trifluoroacetate] returned an IC50 of less than 1 µM.
The same measure for `O=c1[nH]c(CS[C@H]2CCN[C@H](C(F)(F)F)C2)nc2cc(NC3CCCC3)cc(F)c12` (relative stereo) [Example 227, 7-(Cyclopentylamino)-5-fluoro-2-(((trans-2-(trifluoromethyl)piperidin-4-yl)thio)methyl)quinazolin-4(3H)-one bis Trifluoroacetate]: 1 to 10 µM; for `O=c1[nH]c(CS[C@H]2CCN[C@@H](C(F)(F)F)C2)nc2cc(NC3CCCC3)cc(F)c12` (relative stereo) [Example 228, 7-(Cyclopentylamino)-5-fluoro-2-(((cis-2-(trifluoromethyl)piperidin-4-yl)thio)methyl)quinazolin-4(3H)-one hydrochloride]: 1 to 10 µM.
Then `O=c1[nH]c(CS[C@H]2CCNC[C@H](F)C2)nc2cc(NC3CCCC3)cc(F)c12` (relative stereo) [Example 240, 7-(Cyclopentylamino)-5-fluoro-2-(((trans-6-fluoroazepan-4-yl)thio)methyl)quinazolin-4(3H)-one], with less than 1 µM; and `O=c1[nH]c(CS[C@H]2CCNC[C@@H](F)C2)nc2cc(NC3CCCC3)cc(F)c12` (relative stereo) [Example 241, 7-(Cyclopentylamino)-5-fluoro-2-(((cis-6-fluoroazepan-4-yl)thio)methyl)quinazolin-4(3H)-one], with less than 1 µM; and `NC[C@H]1CC[C@@H](SCc2nc3cc(NC4CCCC4)cc(F)c3c(=O)[nH]2)CO1` (relative stereo) [Example 242, 2-((((cis)-6-(Aminomethyl)tetrahydro-2H-pyran-3-yl)thio)methyl)-7-(cyclopentylamino)-5-fluoroquinazolin-4(3H)-one bis Hydrochloride], with 1 to 10 µM.
The same measure for `Cc1cccc2c(=O)[nH]c(CS[C@@H]3CCC[C@H](CO)O3)nc12` (relative stereo) [Example 260, 2-(((Cis-6-(hydroxymethyl)tetrahydro-2H-pyran-2-yl)thio)methyl)-8-methylquinazolin-4(3H)-one]: more than 10 µM.
On to `O=c1[nH]c(CS[C@@H]2CCNC[C@H]2F)nc2cc(OCC3CC3)cc(F)c12` (relative stereo) [Example 297, 7-(Cyclopropylmethoxy)-5-fluoro-2-(((trans-3-fluoropiperidin-4-yl)thio)methyl)quinazolin-4(3H)-one hydrochloride], for which the IC50 was 1 to 10 µM.
Then `O=c1[nH]c(CS[C@H]2CCNC[C@H]2F)nc2cc(NCC3CCC3)c(F)cc12` (relative stereo) [Example 303, 7-((Cyclobutylmethyl)amino)-6-fluoro-2-(((cis-3-fluoropiperidin-4-yl)thio)methyl)quinazolin-4(3H)-one hydrochloride], with less than 1 µM.
Then `CN1CC[C@H](COc2cc(F)c3c(=O)[nH]c(CSC4CCOCC4)nc3c2)[C@@H](F)C1` (relative stereo) [Example 326, 5-Fluoro-7-(((trans)-3-fluoro-1-methylpiperidin-4-yl)methoxy)-2-(((tetrahydro-2H-pyran-4-yl)thio)methyl)quinazolin-4(3H)-one], with less than 1 µM; and `CN1CC[C@H](COc2cc(F)c3c(=O)[nH]c(CS[C@H]4CC[C@H](O)CC4)nc3c2)[C@@H](F)C1` (relative stereo) [Example 334, 5-Fluoro-7-(((trans)-3-fluoro-1-methylpiperidin-4-yl)methoxy)-2-((((trans)-4-hydroxycyclohexyl)thio)methyl)quinazolin-4(3H)-one trifluoroacetic acid], with less than 1 µM; and `O=c1[nH]c(CS[C@H]2CC[C@H](O)CC2)nc2cc(N[C@H]3CCC[C@@H]3F)cc(F)c12` (relative stereo) [Example 340], with less than 1 µM.
Compound `O=c1[nH]c(CS[C@H]2CC[C@H](O)CC2)nc2cc(N[C@@H]3CCC[C@@H]3F)cc(F)c12` (relative stereo) [Example 341] displayed an IC50 of less than 1 µM.
The same measure for `O=c1[nH]c(CSC2CCOCC2)nc2cc(OC[C@H]3CCNC[C@@H]3F)cc(F)c12` (relative stereo) [Example 352]: 1 to 10 µM; for `O=c1[nH]c(CSC2CCOCC2)nc2cc(OC[C@H]3CCC[C@H]3O)cc(F)c12` (relative stereo) [Example 359]: less than 1 µM.
The same measure for `O=c1[nH]c(CSC2CCOCC2)nc2cc(OC[C@H]3CNC[C@H]3F)cc(F)c12` (relative stereo) [Example 371]: less than 1 µM; for `CN1C[C@H](COc2cc(F)c3c(=O)[nH]c(CSC4CCOCC4)nc3c2)[C@H](F)C1` (relative stereo) [Example 372]: less than 1 µM; for `CN1CC[C@@H](COc2cc(F)c3c(=O)[nH]c(CSC4CCOCC4)nc3c2)[C@@H](F)C1` (relative stereo) [Example 388]: less than 1 µM.
Then `CN1CC[C@H](CNc2cc3nc(CSC4CCOCC4)[nH]c(=O)c3c(F)c2F)[C@H](F)C1` (relative stereo) [Example 408], with 1 to 10 µM; and `CN1CC[C@H](SCc2nc3cc(NC4CCCC4)cc(F)c3c(=O)[nH]2)[C@@H](F)C1` (relative stereo) [Example 412], with less than 1 µM.
